# Test results reported in patent US6472425B1, “Methods for treating female sexual dysfunctions” (NitroMed, Inc., priority 1997, dated 2002).
# Test system: Human corpus cavernosum tissue
# Assay: In vitro comparative relaxation responses, isometric tension of phenylephrine-contracted tissue strips in organ chambers
# Assay type: cell-based
# Conditions: doses of 10 μM and 30 μM, compared with an equimolar dose of dipyridamole; tissue contracted with phenylephrine 7×10^−7 M; −100% = tone after papaverine 10^−4 M; FIG. 40
# Text: In Vitro Comparative Relaxation Responses
# Human corpus cavernosum tissue biopsies were obtained at the time of penile prosthesis implantation from impotent men. The tissue was maintained in a chilled Krebs-bicarbonate solution prior to assay. The tissue was cut into strips of 0.3×0.3×1 cm and suspended in organ chambers for isometric tension measurement. Tissues were incrementally stretched until optimal isometric tension for contraction was obtained. Once this was achieved, the tissues were contracted with phenylephine (7×10^−7 M) and once a stable contraction was achieved, the tissues were exposed to either dipyridamole or Example 1 (10^−6 to 3×10^−5 M) by cumulative additions to the chamber. At the end of the experiment papaverine (10^−4 M) is added to obtain maximal relaxation. […] Data are expressed as the percent loss in tone from the phenylephrine-induced contraction (0%=phenylephrine contraction; −100% tone after the administration of papaverine).
structure (smiles),measurement,value
"CC(C)(CC(=O)OCCN(CCOC(=O)CC(C)(C)SN=O)c1nc(N2CCCCC2)c2nc(N(CCOC(=O)CC(C)(C)SN=O)CCOC(=O)CC(C)(C)SN=O)nc(N3CCCCC3)c2n1)SN=O [Example 1, 2,6-bis(diethyl(3-methyl-3(nitrosothiol)butyric acid ester)amino)-4,8-dipiperidinopyrimido-[5,4d]-pyrimidine]",relaxing the phenylephrine-induced contraction (percent loss in tone from the phenylephrine-induced contraction),more efficacious
